Each block holds one compound with its values, some of them ahead of it.
Assays:
in vivo [1] = conditions: both, dog, serum, oral, 15 mg/kg BW
Method: (§1) Methodology: The study was designed to test the feeding of melatonin on the absorption of cephalexin. Dogs (n=24, Body Weight (BW) range: 7-14 kg, age range: 1.5 to 14 yrs) were divided into a test group and a control group. The respective groups were balanced for gender.
(§2) The test group received a single dose of melatonin (1 mg/kg BW) at 12:00 pm, followed by a single dose of cephalexin (15 mg/kg BW) between 1:00 and 2:00 pm. Dosing with melatonin and cephalexin were both by oral administration to the dogs. The study evaluated cephalexin absorption by determining the pharmacokinetics of cephalexin appearance in serum subsequent to the melatonin administration. […] Samples for pharmacokinetic analysis were taken at 15, 30, 45, and 60 min, as well as 1.5, 2, 2.5, 3, 3.5, 4, 6, and 8 hours after oral dosing of cephalexin. Cephalexin concentration was determined by high pressure liquid chromatograph. Serum melatonin content was analyzed before and after the oral administration time, e.g., at −5, −3, −1, −0.5 hour before, 0 (dosing time), and at 0.5, 1, 2, 3, 4, and 6 hours after oral dosing of melatonin. Melatonin was quantified by radioimmunoassay procedures.

in vivo [2] = conditions: both, Labrador Retriever, dog, serum, oral, 15 mg/kg BW
Method: (§3) Methology: The study used n=40 Labrador Retriever dogs (BW range: 21-40 kg) to test the oral ingestion of melatonin compared to no-melatonin placebo control on the absorption of cephalexin, an antibiotic that also serves as a marker substrate for small peptides. The dogs were balanced for gender and the ages ranged from 1.5 to 9 years old. The study evaluated cephalexin absorption by orally administering a single 15 mg/kg BW dose of cephalexin to dogs at 2:00 pm, and subsequently determining the pharmakinetics of cephalexin appearance in serum. Dogs were randomized into 5 different treatment groups and received a single oral dose of melatonin (0.01, 0.1, 1, or 3 mg/kg BW) in a gelatin capsule or placebo simultaneously as the cephalexin dose. The oral dose was immediately followed by an oral administration of 60 mL of water by a 60 mL irrigation syringe. The melatonin dose diluent and placebo pill were the inert carrier, avicel. Cephalexin pharmakinetics were analyzed at 30 and 60 min after dosing and 1.5, 2, 2.5, 3, 4, and 6 hours after oral dosing of cephalexin. Cephalexin concentration was determined by high pressure liquid chromatograph.

[3] = Day/night activity, Actiwatch monitor, 24 h before and 48 h after oral melatonin (Example 2); format: in vivo, Labrador Retriever dogs; conditions: for Activity (Actiwatch): start of day 2
Method: Dogs were fitted with an Actiwatch monitor 24 hours before oral ingestion of one of the melatonin doses, specifically at 2 PM on day 1. Following the oral administration of melatonin, the activity monitoring continued for another 48 hours, at which time the monitors were removed and the data collected for analysis. The dogs were exposed to 11.5 h light:12.5 h dark cycle, in which kennel lighting and natural light was combined over the 11.5 hour period. In the morning the light cycle began with exposure to kennel lighting at 6 AM and darkness onset occurred at 5:30 PM with sunset. For data analysis, activity was separated into three periods of time, afternoon light phase (2 PM to 5:30 PM, 3.5 h duration), dark phase (5:30 PM to 6 AM, 12.5 h duration), and morning light phase (6 AM to 2 PM, 8 h duration). For data analysis purposes, a 24 hour period is from 2:00 PM to 1:59 PM.

[4] = Serum melatonin pharmacokinetics after oral melatonin, radioimmunoassay (Example 1); format: in vivo, Dogs
Source text: Melatonin was quantified by radioimmunoassay procedures.

[5] = both, Labrador Retriever, dog, in vivo, po, 3 mg/kg
Method: as §3

[6] = melatonin 1 mg/kg BW oral before cephalexin 15 mg/kg BW oral
Method: as §1, §2

[7] = Titration of oral melatonin dose on cephalexin absorption: serum pharmacokinetics of cephalexin (Example 2)
Method: as §3

concentration at 0.25 h (in vivo [1]): 790 ng/mL | concentration at 0.5 h (in vivo [1]): 4170 ng/mL | concentration at 0.75 h (in vivo [1]): 8190 ng/mL | concentration at 1 h (in vivo [1]): 10900 ng/mL | concentration at 1.5 h (in vivo [1]): 13900 ng/mL | concentration at 2 h (in vivo [1]): 13700 ng/mL | concentration at 2.5 h (in vivo [1]): 14300 ng/mL | concentration at 3 h (in vivo [1]): 13000 ng/mL | concentration at 3.5 h (in vivo [1]): 11800 ng/mL | concentration at 4 h (in vivo [1]): 9900 ng/mL | concentration at 6 h (in vivo [1]): 5910 ng/mL | concentration at 8 h (in vivo [1]): 3730 ng/mL | concentration at 0.5 h (in vivo [2]): 2010 ng/mL | concentration at 1 h (in vivo [2]): 6280 ng/mL | concentration at 1.5 h (in vivo [2]): 9920 ng/mL | concentration at 2 h (in vivo [2]): 11800 ng/mL | concentration at 2.5 h (in vivo [2]): 12400 ng/mL | concentration at 3 h (in vivo [2]): 12200 ng/mL | concentration at 4 h (in vivo [2]): 11300 ng/mL | concentration at 6 h (in vivo [2]): 7570 ng/mL
Structure (SMILES): CC1=C(C(=O)O)N2C(=O)[C@@H](NC(=O)[C@H](N)c3ccccc3)[C@H]2SC1 [Cephalexin, cephalexin]

Activity (Actiwatch) ([3]; melatonin 0.01 mg/kg BW oral at 2 PM, Afternoon Light Phase (2 PM-5:30 PM), Day 1 (before dosing)): 30064 | Activity (Actiwatch) ([3]; melatonin 0.01 mg/kg BW oral at 2 PM, Afternoon Light Phase (2 PM-5:30 PM), Day 2): 44935 | Activity (Actiwatch) ([3]; melatonin 0.01 mg/kg BW oral at 2 PM, Afternoon Light Phase (2 PM-5:30 PM), Day 3): 39386 | Activity (Actiwatch) ([3]; melatonin 0.01 mg/kg BW oral at 2 PM, Dark Phase (5:30 PM-6 AM), Day 1 (before dosing)): 32346 | Activity (Actiwatch) ([3]; melatonin 0.01 mg/kg BW oral at 2 PM, Dark Phase (5:30 PM-6 AM), Day 2): 30930 | Activity (Actiwatch) ([3]; melatonin 0.01 mg/kg BW oral at 2 PM, Dark Phase (5:30 PM-6 AM), Day 3): 34140 | Activity (Actiwatch) ([3]; melatonin 0.01 mg/kg BW oral at 2 PM, Morning Light Phase (6 AM-2 PM), Day 1 (before dosing)): 140160 | Activity (Actiwatch) ([3]; melatonin 0.01 mg/kg BW oral at 2 PM, Morning Light Phase (6 AM-2 PM), Day 2): 128216 | Activity (Actiwatch) ([3]; melatonin 0.01 mg/kg BW oral at 2 PM, Morning Light Phase (6 AM-2 PM), Day 3): 120706 | Activity (Actiwatch) ([3]; melatonin 0.1 mg/kg BW oral at 2 PM, Afternoon Light Phase (2 PM-5:30 PM), Day 1 (before dosing)): 28140 | Activity (Actiwatch) ([3]; melatonin 0.1 mg/kg BW oral at 2 PM, Afternoon Light Phase (2 PM-5:30 PM), Day 2): 30124 | Activity (Actiwatch) ([3]; melatonin 0.1 mg/kg BW oral at 2 PM, Afternoon Light Phase (2 PM-5:30 PM), Day 3): 21497 | Activity (Actiwatch) ([3]; melatonin 0.1 mg/kg BW oral at 2 PM, Dark Phase (5:30 PM-6 AM), Day 1 (before dosing)): 38464 | Activity (Actiwatch) ([3]; melatonin 0.1 mg/kg BW oral at 2 PM, Dark Phase (5:30 PM-6 AM), Day 2): 30753 | Activity (Actiwatch) ([3]; melatonin 0.1 mg/kg BW oral at 2 PM, Dark Phase (5:30 PM-6 AM), Day 3): 32849 | Activity (Actiwatch) ([3]; melatonin 0.1 mg/kg BW oral at 2 PM, Morning Light Phase (6 AM-2 PM), Day 1 (before dosing)): 133337 | Activity (Actiwatch) ([3]; melatonin 0.1 mg/kg BW oral at 2 PM, Morning Light Phase (6 AM-2 PM), Day 2): 130972 | Activity (Actiwatch) ([3]; melatonin 0.1 mg/kg BW oral at 2 PM, Morning Light Phase (6 AM-2 PM), Day 3): 99800 | Activity (Actiwatch) ([3]; melatonin 1 mg/kg BW oral at 2 PM, Afternoon Light Phase (2 PM-5:30 PM), Day 1 (before dosing)): 34376 | Activity (Actiwatch) ([3]; melatonin 1 mg/kg BW oral at 2 PM, Afternoon Light Phase (2 PM-5:30 PM), Day 2): 44889 | Activity (Actiwatch) ([3]; melatonin 1 mg/kg BW oral at 2 PM, Afternoon Light Phase (2 PM-5:30 PM), Day 3): 31184 | Activity (Actiwatch) ([3]; melatonin 1 mg/kg BW oral at 2 PM, Dark Phase (5:30 PM-6 AM), Day 1 (before dosing)): 47178 | Activity (Actiwatch) ([3]; melatonin 1 mg/kg BW oral at 2 PM, Dark Phase (5:30 PM-6 AM), Day 2): 26733 | Activity (Actiwatch) ([3]; melatonin 1 mg/kg BW oral at 2 PM, Dark Phase (5:30 PM-6 AM), Day 3): 49958 | Activity (Actiwatch) ([3]; melatonin 1 mg/kg BW oral at 2 PM, Morning Light Phase (6 AM-2 PM), Day 1 (before dosing)): 155482 | Activity (Actiwatch) ([3]; melatonin 1 mg/kg BW oral at 2 PM, Morning Light Phase (6 AM-2 PM), Day 2): 151573 | Activity (Actiwatch) ([3]; melatonin 1 mg/kg BW oral at 2 PM, Morning Light Phase (6 AM-2 PM), Day 3): 126103 | Activity (Actiwatch) ([3]; melatonin 3 mg/kg BW oral at 2 PM, Afternoon Light Phase (2 PM-5:30 PM), Day 1 (before dosing)): 30548 | Activity (Actiwatch) ([3]; melatonin 3 mg/kg BW oral at 2 PM, Afternoon Light Phase (2 PM-5:30 PM), Day 2): 45730 | Activity (Actiwatch) ([3]; melatonin 3 mg/kg BW oral at 2 PM, Afternoon Light Phase (2 PM-5:30 PM), Day 3): 35034 | Activity (Actiwatch) ([3]; melatonin 3 mg/kg BW oral at 2 PM, Dark Phase (5:30 PM-6 AM), Day 1 (before dosing)): 33517 | Activity (Actiwatch) ([3]; melatonin 3 mg/kg BW oral at 2 PM, Dark Phase (5:30 PM-6 AM), Day 2): 35926 | Activity (Actiwatch) ([3]; melatonin 3 mg/kg BW oral at 2 PM, Dark Phase (5:30 PM-6 AM), Day 3): 33492 | Activity (Actiwatch) ([3]; melatonin 3 mg/kg BW oral at 2 PM, Morning Light Phase (6 AM-2 PM), Day 1 (before dosing)): 139265 | Activity (Actiwatch) ([3]; melatonin 3 mg/kg BW oral at 2 PM, Morning Light Phase (6 AM-2 PM), Day 2): 153805 | Activity (Actiwatch) ([3]; melatonin 3 mg/kg BW oral at 2 PM, Morning Light Phase (6 AM-2 PM), Day 3): 117374 | Activity during the dark phase immediately following oral ingestion, compared to placebo ([3]; melatonin 0.01, 0.1, and 1 mg/kg groups): decrease compared to the placebo groups | Nighttime activity ([3]; oral melatonin administered in the afternoon): nighttime activity is slightly reduced | concentration at 1 h ([4]; dog, serum, melatonin 1 mg/kg BW oral at 12:00 pm, sample 1:00 pm): 9.55 ng/mL | concentration at 1.5 h ([4]; dog, serum, melatonin 1 mg/kg BW oral at 12:00 pm, sample 1:30 pm): 8.97 ng/mL | concentration at 2 h ([4]; dog, serum, melatonin 1 mg/kg BW oral at 12:00 pm, sample 2:00 pm): 4.79 ng/mL | concentration at 3 h ([4]; dog, serum, melatonin 1 mg/kg BW oral at 12:00 pm, sample 3:00 pm): 1.46 ng/mL | concentration at 4 h ([4]; dog, serum, melatonin 1 mg/kg BW oral at 12:00 pm, sample 4:00 pm): 0.747 ng/mL | concentration at 5 h ([4]; dog, serum, melatonin 1 mg/kg BW oral at 12:00 pm, sample 5:00 pm): 0.273 ng/mL | concentration at 7 h ([4]; dog, serum, melatonin 1 mg/kg BW oral at 12:00 pm, sample 7:00 pm): 0.0885 ng/mL | concentration at -3 h ([4]; dog, serum, melatonin 1 mg/kg BW oral at 12:00 pm, sample 9:00 am (before dosing)): 0.0039 ng/mL | concentration at -1 h ([4]; dog, serum, melatonin 1 mg/kg BW oral at 12:00 pm, sample 11:00 am (before dosing)): 0.0005 ng/mL | concentration at 0 h ([4]; dog, serum, melatonin 1 mg/kg BW oral at 12:00 pm, sample 12:00 pm (dosing time)): 0.0184 ng/mL | concentration at 0.5 h ([4]; dog, serum, melatonin 1 mg/kg BW oral at 12:00 pm, sample 12:30 pm): 10.7 ng/mL | Cephalexin AUC greater than placebo group [5]: 45-34 | Effect of oral melatonin on absorption of cephalexin [6]: increased the absorption of cephalexin | Amount of cephalexin appearing in the blood compared to the placebo group ([7]; melatonin 0.01 mg/kg BW oral): slightly decreased
Structure (SMILES): COc1ccc2[nH]cc(CCNC(C)=O)c2c1 [Melatonin, 5-methoxy-N-acetyltryptamine]
Influence on activity, late afternoon light phase (2 pm to 5:30 pm) ([3]; oral melatonin 0.01, 0.1, 1, and 3 mg/kg BW): did not demonstrate any influence of oral melatonin on activity | Impact on activity in the daylight hours ([3]; oral melatonin 0.01-3 mg/kg BW): does not seem to impact activity of dogs in the daylight hours | Melatonin appearance in serum ([4]; dogs that ingested melatonin 1 mg/kg BW, versus baseline levels of control dogs): increased significantly for up to 6 hours after ingestion | Effect on absorption of cephalexin compared to placebo dogs ([7]; melatonin 0.1, 1, and 3 mg/kg BW oral): an increase in the absorption of cephalexin

Source: patent publication US8492331B2, “Methods for increasing absorption of peptides, peptidomimetics and other gastrointestinal transport protein substrates” (Nestec S.A., priority 2008, dated 2013)
